Results taken from article PMC4876673, “Antitrypanosomal activity of 5-nitro-2-aminothiazole-based compounds” (European Journal of Medicinal Chemistry, 2016).
Where two headings read alike, the source gives them in different places.

What was measured:
[1] = system: T.b. rhodesiense, strain STIB 900 trypomastigotes; assay: In vitro activity against T. b. rhodesiense, strain STIB 900 trypomastigotes; assay type: cell-based, Trypanosoma brucei rhodesiense; settings: for IC50: Trypanosoma brucei, read-out: T.b.r. IC50; for SI (T.b.r.): ratio IC50 in L6 cells/IC50 in T.b. rhodesiense
Method: (§1) Compounds in Table 1 were screened for antiparasitic activity against three trypanosomatids: T. cruzi, T. b. rhodesiense and Leishmania donovani. The concentration of compound that inhibits parasite growth by 50% (IC50) was calculated from dose response curves for each parasite (Table 1). In addition, compounds were tested for toxicity in L6 rat skeletal myoblasts, used as host cells for T. cruzi amastigotes, in order to calculate a selectivity index for each parasite (SI = IC50L6/IC50parasite) (Table 1).
(§2) In vitro activity against T. cruzi, T. b. rhodesiense, L. donovani and cytotoxicity assessment using L6 cells (rat skeletal myoblasts) was determined using a 96-well plate format as previously described. Data were analyzed with the graphic program Softmax Pro (Molecular Devices, Sunnyvale, CA, USA), which calculated IC50 values by linear regression from the sigmoidal dose inhibition curves.

[2] = system: T. cruzi, strain Tulahuen C4 amastigotes; assay: In vitro activity against T. cruzi amastigotes in infected L6 cells; assay type: cell-based, Trypanosoma cruzi; settings: for IC50: Trypanosoma cruzi, T. cruzi Tulahuen C4 amastigotes in L6 cells, read-out: T. c. IC50; for SI (T. c.): ratio IC50 in L6 cells/IC50 in T. cruzi; for Bnz/comp: ratio of T. cruzi IC50 of benznidazole to that of the compound
Method: (§3) In vitro activity against T. cruzi, T. b. rhodesiense, L. donovani and cytotoxicity assessment using L6 cells (rat skeletal myoblasts) was determined using a 96-well plate format as previously described [38]. Data were analyzed with the graphic program Softmax Pro (Molecular Devices, Sunnyvale, CA, USA), which calculated IC50 values by linear regression from the sigmoidal dose inhibition curves.

[3] = system: L. donovani axenic, strain MHOM-ET-67/L82 amastigotes; assay: In vitro activity against L. donovani axenic amastigotes; assay type: cell-based, Leishmania donovani; settings: for IC50: Leishmania donovani, L. donovani axenic amastigotes MHOM-ET-67/L82, read-out: L.d. IC50; for SI (L.d.): ratio IC50 in L6 cells/IC50 in L. donovani; for activity class against L. donovani: L. donovani amastigotes
Method: as §3

[4] = system: L6 cells (rat skeletal myoblasts); assay: Cytotoxicity in the host L6 cells; assay type: cell-based; settings: read-out: Cyt. L6 IC50
Method: as §1, §2

[5] = system: T. b. brucei wild type; assay: T. brucei brucei antiproliferating assay, wild type bloodstream form; assay type: cell-based; settings: Trypanosoma brucei, 72 h
Method: (§4) To further determine whether NTR plays a role in metabolizing the substrates within the parasite, the above subset of compounds were phenotypically screened against BSF T. b. brucei expressing wild type or elevated levels of TbNTR.
(§5) Where appropriate, induction of the TbNTR was carried out by adding tetracycline (1 μg/mL). After incubation for 3 days at 37 °C, resazurin (2.5 μg per well) was added to each well and the plates incubated for a further 8 h. The cell density of each culture was determined as described before [26] and the IC50 established.

[6] = system: TbNTR overexpressing T. b. brucei; assay: microbe, parasite or virus in culture; assay type: cell-based, Trypanosoma brucei brucei; settings: for Ratio –tet/+tet: IC50 −tet / IC50 +tet; for IC50: Trypanosoma brucei
Method: as §4, §5

[7] = T.b. rhodesiense STIB 900 trypomastigotes
[8] = read-out: IC50 value T.b. brucei Wild type, BSF, wild type, 3 days
[9] = read-out: IC50 value T.b. brucei TbNTR (+tet)
[10] = read-out: IC50 value T.b. brucei TbNTR (−tet)

| Structure (SMILES) | IC50 [1, 7] [µM] | SI (T.b.r.) [1] | IC50 [2] [µM] | SI (T. c.) [2] | Bnz/comp [2] | IC50 [3] [µM] | SI (L.d.) [3] | IC50 [4] [µM] | melting point | IC50 [5, 8] [µM] | Ratio –tet/+tet [6] | IC50 [6, 9] [µM] | IC50 [6, 10] [µM] | fold less potent against T. cruzi than the corresponding 3-nitrotriazole-based analog ([2]; comparison with analogs of ref 24) | activity class against L. donovani [3] | IC50 [1] [µM] | IC50 ([5]; BSF, wild type, 3 days, read-out: IC50 value T.b. brucei Wild type) [µM] |
| --- | --- | --- | --- | --- | --- | --- | --- | --- | --- | --- | --- | --- | --- | --- | --- | --- | --- |
| Cc1ccc(N2CCN(CC(=O)Nc3ncc([N+](=O)[O-])s3)CC2)cc1 [Compound 2, N-(5-nitrothiazol-2-yl)-2-(4-(p-tolyl)piperazin-1-yl)acetamide] | 14.4 | 8.8 | 9.31 | 14 | 0.2 | 41.4 | 3 | 126 | 160 to 161 °C (dec.) |  |  |  |  |  |  |  |  |
| O=C(CN1CCN(c2ccc(C(F)(F)F)cc2)CC1)Nc1ncc([N+](=O)[O-])s1 [Compound 3, N-(5-nitrothiazol-2-yl)-2-(4-(4-(trifluoromethyl)phenyl)piperazin-1-yl)acetamide] | 8.42 | 5.6 | 1.73 | 27 | 1.3 | 12.7 | 3.7 | 47.1 | 173 to 175 °C | 1.02 ± 0.045 | 2.8 | 0.526 ± 0.024 | 1.46 ± 0.113 |  |  |  |  |
| COc1ccc(N2CCN(CC(=O)Nc3ncc([N+](=O)[O-])s3)CC2)cc1 [Compound 4, 2-(4-(4-methoxyphenyl)piperazin-1-yl)-N-(5-nitrothiazol-2-yl)acetamide] | 13.8 | 10 | 3.06 |  | 0.7 | 68.2 | 2.1 | 143 | 154 to 156 °C (dec.) |  |  |  |  |  |  |  |  |
| O=C(CN1CCN(c2ccc(Cl)c(Cl)c2)CC1)Nc1ncc([N+](=O)[O-])s1 [Compound 5, 2-(4-(3,4-dichlorophenyl)piperazin-1-yl)-N-(5-nitrothiazol-2-yl)acetamide] | 10.8 | 4.2 | 1.53 | 30 | 1.4 | 7.55 | 6.1 | 45.7 | 169 to 171 °C | 1.36 ± 0.091 | 2.6 | 0.747 ± 0.075 | 1.96 ± 0.101 |  |  |  |  |
| O=C(CN1CCN(C(c2ccccc2)c2ccc(Cl)cc2)CC1)Nc1ncc([N+](=O)[O-])s1 (stereo not shown) [Compound 6, 2-(4-((4-chlorophenyl)(phenyl)methyl)piperazin-1-yl)-N-(5-nitrothiazol-2-yl)acetamide] | 17.4 | <1 | 0.571 | 23 | 3.8 | 3.39 | 3.8 | 12.9 | 92 to 95 °C | 1.47 ± 0.104 | 2.6 | 0.636 ± 0.022 | 1.64 ± 0.069 | about 8 fold | moderately active (between 1.0 and 6.0 μM) |  |  |
| O=C(CN1CCN(c2ccccn2)CC1)Nc1ncc([N+](=O)[O-])s1 [Compound 7, N-(5-nitrothiazol-2-yl)-2-(4-(pyridin-2-yl)piperazin-1-yl)acetamide] | 13.3 | 2.2 | 4.97 | 5.9 | 0.4 | 64.9 | <1 | 29.6 | 175 to 180 °C (dec.) |  |  |  |  |  |  |  |  |
| O=C(Nc1ncc([N+](=O)[O-])s1)c1ccc(-c2ccccc2)cc1 [Compound 8, N-(5-nitrothiazol-2-yl)-[1,1′-biphenyl]-4-carboxamide] | 14.3 | <1 | 2.52 | 2.6 | 0.9 | 104 | <1 | 6.57 | > 230 °C | 1.61 ± 0.396 | 2.1 | 2.18 ± 0.085 | 4.59 ± 0.149 |  |  |  |  |
| O=C(COc1cccc(-c2ccccc2)c1)Nc1ncc([N+](=O)[O-])s1 [Compound 9, 2-([1,1′-biphenyl]-3-yloxy)-N-(5-nitrothiazol-2-yl)acetamide] | 28.7 | 1.7 | 22.8 | 2.2 | 0.1 | 4.27 | 12 | 49.4 | 148 to 150 °C |  |  |  |  |  | moderately active (between 1.0 and 6.0 μM) |  |  |
| O=C(COc1cccc(Oc2ccccc2)c1)Nc1ncc([N+](=O)[O-])s1 [Compound 10, N-(5-nitrothiazol-2-yl)-2-(3-phenoxyphenoxy)acetamide] | 31 | 1.8 | 34.6 | 1.6 | 0.1 | 5.4 | 10 | 54.9 | 151 to 153 °C |  |  |  |  |  | moderately active (between 1.0 and 6.0 μM) |  |  |
| O=C(COc1ccc(-c2ccccc2)cc1)Nc1ncc([N+](=O)[O-])s1 [Compound 11, 2-([1,1′-biphenyl]-4-yloxy)-N-(5-nitrothiazol-2-yl)acetamide] | 40.8 | 1.3 | 18.4 | 3 | 0.1 | 10.5 | 5.2 | 54.9 | 196 to 198 °C | 3.75 ± 0.383 | 1.5 | 2.2 ± 0.1 | 3.25 ± 0.142 |  |  |  |  |
| O=C(COc1ccc(Oc2ccccc2)cc1)Nc1ncc([N+](=O)[O-])s1 [Compound 12, N-(5-nitrothiazol-2-yl)-2-(4-phenoxyphenoxy)acetamide] | 28.4 |  | 32.6 |  | 0.1 | 5.4 |  | 52.7 |  |  |  |  |  |  | moderately active (between 1.0 and 6.0 μM) |  |  |
| Nc1nc(N)nc(Nc2ccc([As]3SCC(CO)S3)cc2)n1 (stereo not shown) [Melars., Melarsoprol, reference compound] |  |  |  |  |  |  |  |  |  |  |  |  |  |  |  | 0.009 ± 0.001 |  |
| CC1CS(=O)(=O)CCN1/N=C/c1ccc([N+](=O)[O-])o1 (stereo not shown) [nfx, nifurtimox, reference compound] |  |  |  |  |  |  |  |  |  |  | 7.3 | 0.869 ± 0.046 | 6.36 ± 0.119 |  |  |  | 3.98 ± 0.15 |
